# Data as given in paper PMC8217813, “Bridging Computational Vaccinology and Vaccine Development Through Systematic Identification, Characterization, and Downselection of Conserved and Variable Circumsporozoite Protein CD4 T Cell Epitopes From Diverse Plasmodium falciparum Strains” (Frontiers in Immunology, 2021).
# Tested on: CD4 T cells co-cultured with autologous DCs from PBMCs
# Assay type: cell-based, human
# Settings: positive = Stimulation Index ≥1.5-fold above baseline, 5 µg/mL peptide; for Percentage of donors demonstrating IFN-γ responses, DR1 / Percentage of donors demonstrating IL-2 responses, DR1 / Percentage of donors demonstrating IL-4 responses, DR1 / Percentage of donors demonstrating IL-10 responses, DR1 / Percentage of donors demonstrating TNF-α responses, DR1: DR1 donors N=5; for Percentage of donors demonstrating IFN-γ responses, DR1 / Percentage of donors demonstrating IFN-γ responses, DR3 / Percentage of donors demonstrating IFN-γ responses, DR4 / Percentage of donors demonstrating IFN-γ responses, DR7 / Percentage of donors demonstrating IFN-γ responses, DR8 / Percentage of donors demonstrating IFN-γ responses, DR9 / Percentage of donors demonstrating IFN-γ responses, DR11 / Percentage of donors demonstrating IFN-γ responses, DR13 / Percentage of donors demonstrating IFN-γ responses, DR15: ICCS after 14-day co-culture; for Percentage of donors demonstrating IL-2 responses, DR1 / Percentage of donors demonstrating IL-4 responses, DR1 / Percentage of donors demonstrating IL-10 responses, DR1 / Percentage of donors demonstrating TNF-α responses, DR1 / Percentage of donors demonstrating IL-2 responses, DR3 / Percentage of donors demonstrating IL-4 responses, DR3 / Percentage of donors demonstrating IL-10 responses, DR3 / Percentage of donors demonstrating TNF-α responses, DR3 / Percentage of donors demonstrating IL-2 responses, DR4 / Percentage of donors demonstrating IL-4 responses, DR4 / Percentage of donors demonstrating IL-10 responses, DR4 / Percentage of donors demonstrating TNF-α responses, DR4 / Percentage of donors demonstrating IL-2 responses, DR7 / Percentage of donors demonstrating IL-4 responses, DR7 / Percentage of donors demonstrating IL-10 responses, DR7 / Percentage of donors demonstrating TNF-α responses, DR7 / Percentage of donors demonstrating IL-2 responses, DR8 / Percentage of donors demonstrating IL-4 responses, DR8 / Percentage of donors demonstrating IL-10 responses, DR8 / Percentage of donors demonstrating TNF-α responses, DR8 / Percentage of donors demonstrating IL-2 responses, DR9 / Percentage of donors demonstrating IL-4 responses, DR9 / Percentage of donors demonstrating IL-10 responses, DR9 / Percentage of donors demonstrating TNF-α responses, DR9 / Percentage of donors demonstrating IL-2 responses, DR11 / Percentage of donors demonstrating IL-4 responses, DR11 / Percentage of donors demonstrating IL-10 responses, DR11 / Percentage of donors demonstrating TNF-α responses, DR11 / Percentage of donors demonstrating IL-2 responses, DR13 / Percentage of donors demonstrating IL-4 responses, DR13 / Percentage of donors demonstrating IL-10 responses, DR13 / Percentage of donors demonstrating TNF-α responses, DR13 / Percentage of donors demonstrating IL-2 responses, DR15 / Percentage of donors demonstrating IL-4 responses, DR15 / Percentage of donors demonstrating IL-10 responses, DR15 / Percentage of donors demonstrating TNF-α responses, DR15: ICCS; for Percentage of donors demonstrating IFN-γ responses, DR3 / Percentage of donors demonstrating IL-2 responses, DR3 / Percentage of donors demonstrating IL-4 responses, DR3 / Percentage of donors demonstrating IL-10 responses, DR3 / Percentage of donors demonstrating TNF-α responses, DR3: DR3 donors N=6; for Percentage of donors demonstrating IFN-γ responses, DR4 / Percentage of donors demonstrating IL-2 responses, DR4 / Percentage of donors demonstrating IL-4 responses, DR4 / Percentage of donors demonstrating IL-10 responses, DR4 / Percentage of donors demonstrating TNF-α responses, DR4: DR4 donors N=10; for Percentage of donors demonstrating IFN-γ responses, DR7 / Percentage of donors demonstrating IL-2 responses, DR7 / Percentage of donors demonstrating IL-4 responses, DR7 / Percentage of donors demonstrating IL-10 responses, DR7 / Percentage of donors demonstrating TNF-α responses, DR7: DR7 donors N=4; for Percentage of donors demonstrating IFN-γ responses, DR8 / Percentage of donors demonstrating IL-2 responses, DR8 / Percentage of donors demonstrating IL-4 responses, DR8 / Percentage of donors demonstrating IL-10 responses, DR8 / Percentage of donors demonstrating TNF-α responses, DR8: DR8 donors N=4; for Percentage of donors demonstrating IFN-γ responses, DR9 / Percentage of donors demonstrating IL-2 responses, DR9 / Percentage of donors demonstrating IL-4 responses, DR9 / Percentage of donors demonstrating IL-10 responses, DR9 / Percentage of donors demonstrating TNF-α responses, DR9: DR9 donors N=4; for Percentage of donors demonstrating IFN-γ responses, DR11 / Percentage of donors demonstrating IL-2 responses, DR11 / Percentage of donors demonstrating IL-4 responses, DR11 / Percentage of donors demonstrating IL-10 responses, DR11 / Percentage of donors demonstrating TNF-α responses, DR11: DR11 donors N=4; for Percentage of donors demonstrating IFN-γ responses, DR13 / Percentage of donors demonstrating IL-2 responses, DR13 / Percentage of donors demonstrating IL-4 responses, DR13 / Percentage of donors demonstrating IL-10 responses, DR13 / Percentage of donors demonstrating TNF-α responses, DR13: DR13 donors N=7; for Percentage of donors demonstrating IFN-γ responses, DR15 / Percentage of donors demonstrating IL-2 responses, DR15 / Percentage of donors demonstrating IL-4 responses, DR15 / Percentage of donors demonstrating IL-10 responses, DR15 / Percentage of donors demonstrating TNF-α responses, DR15: DR15 donors N=7
sequence,measurement,value
DKHIEKYLKRIQNSLSTEWS [ICS9],"Percentage of donors demonstrating IFN-γ responses, DR1",40%
same,"Percentage of donors demonstrating IL-2 responses, DR1",20%
same,"Percentage of donors demonstrating IL-4 responses, DR1",0%
same,"Percentage of donors demonstrating IL-10 responses, DR1",0%
same,"Percentage of donors demonstrating TNF-α responses, DR1",40%
same,"Percentage of donors demonstrating IFN-γ responses, DR3",50%
same,"Percentage of donors demonstrating IL-2 responses, DR3",33%
same,"Percentage of donors demonstrating IL-4 responses, DR3",33%
same,"Percentage of donors demonstrating IL-10 responses, DR3",17%
same,"Percentage of donors demonstrating TNF-α responses, DR3",50%
same,"Percentage of donors demonstrating IFN-γ responses, DR4",70%
same,"Percentage of donors demonstrating IL-2 responses, DR4",50%
same,"Percentage of donors demonstrating IL-4 responses, DR4",0%
same,"Percentage of donors demonstrating IL-10 responses, DR4",10%
same,"Percentage of donors demonstrating TNF-α responses, DR4",70%
same,"Percentage of donors demonstrating IFN-γ responses, DR7",75%
same,"Percentage of donors demonstrating IL-2 responses, DR7",50%
same,"Percentage of donors demonstrating IL-4 responses, DR7",25%
same,"Percentage of donors demonstrating IL-10 responses, DR7",0%
same,"Percentage of donors demonstrating TNF-α responses, DR7",50%
same,"Percentage of donors demonstrating IFN-γ responses, DR8",50%
same,"Percentage of donors demonstrating IL-2 responses, DR8",75%
same,"Percentage of donors demonstrating IL-4 responses, DR8",0%
same,"Percentage of donors demonstrating IL-10 responses, DR8",0%
same,"Percentage of donors demonstrating TNF-α responses, DR8",100%
same,"Percentage of donors demonstrating IFN-γ responses, DR9",50%
same,"Percentage of donors demonstrating IL-2 responses, DR9",50%
same,"Percentage of donors demonstrating IL-4 responses, DR9",0%
same,"Percentage of donors demonstrating IL-10 responses, DR9",0%
same,"Percentage of donors demonstrating TNF-α responses, DR9",50%
same,"Percentage of donors demonstrating IFN-γ responses, DR11",75%
same,"Percentage of donors demonstrating IL-2 responses, DR11",50%
same,"Percentage of donors demonstrating IL-4 responses, DR11",0%
same,"Percentage of donors demonstrating IL-10 responses, DR11",0%
same,"Percentage of donors demonstrating TNF-α responses, DR11",75%
same,"Percentage of donors demonstrating IFN-γ responses, DR13",43%
same,"Percentage of donors demonstrating IL-2 responses, DR13",43%
same,"Percentage of donors demonstrating IL-4 responses, DR13",0%
same,"Percentage of donors demonstrating IL-10 responses, DR13",14%
same,"Percentage of donors demonstrating TNF-α responses, DR13",57%
same,"Percentage of donors demonstrating IFN-γ responses, DR15",57%
same,"Percentage of donors demonstrating IL-2 responses, DR15",43%
same,"Percentage of donors demonstrating IL-4 responses, DR15",14%
same,"Percentage of donors demonstrating IL-10 responses, DR15",43%
same,"Percentage of donors demonstrating TNF-α responses, DR15",43%
DQHIEKYLKTIKNSLSTEWS [ICS10],"Percentage of donors demonstrating IFN-γ responses, DR1",20%
same,"Percentage of donors demonstrating IL-2 responses, DR1",0%
same,"Percentage of donors demonstrating IL-4 responses, DR1",0%
same,"Percentage of donors demonstrating IL-10 responses, DR1",0%
same,"Percentage of donors demonstrating TNF-α responses, DR1",0%
same,"Percentage of donors demonstrating IFN-γ responses, DR3",33%
same,"Percentage of donors demonstrating IL-2 responses, DR3",17%
same,"Percentage of donors demonstrating IL-4 responses, DR3",17%
same,"Percentage of donors demonstrating IL-10 responses, DR3",0%
same,"Percentage of donors demonstrating TNF-α responses, DR3",17%
same,"Percentage of donors demonstrating IFN-γ responses, DR4",40%
same,"Percentage of donors demonstrating IL-2 responses, DR4",30%
same,"Percentage of donors demonstrating IL-4 responses, DR4",0%
same,"Percentage of donors demonstrating IL-10 responses, DR4",10%
same,"Percentage of donors demonstrating TNF-α responses, DR4",10%
same,"Percentage of donors demonstrating IFN-γ responses, DR7",75%
same,"Percentage of donors demonstrating IL-2 responses, DR7",25%
same,"Percentage of donors demonstrating IL-4 responses, DR7",0%
same,"Percentage of donors demonstrating IL-10 responses, DR7",25%
same,"Percentage of donors demonstrating TNF-α responses, DR7",25%
same,"Percentage of donors demonstrating IFN-γ responses, DR8",0%
same,"Percentage of donors demonstrating IL-2 responses, DR8",0%
same,"Percentage of donors demonstrating IL-4 responses, DR8",0%
same,"Percentage of donors demonstrating IL-10 responses, DR8",0%
same,"Percentage of donors demonstrating TNF-α responses, DR8",0%
same,"Percentage of donors demonstrating IFN-γ responses, DR9",25%
same,"Percentage of donors demonstrating IL-2 responses, DR9",25%
same,"Percentage of donors demonstrating IL-4 responses, DR9",0%
same,"Percentage of donors demonstrating IL-10 responses, DR9",0%
same,"Percentage of donors demonstrating TNF-α responses, DR9",25%
same,"Percentage of donors demonstrating IFN-γ responses, DR11",50%
same,"Percentage of donors demonstrating IL-2 responses, DR11",50%
same,"Percentage of donors demonstrating IL-4 responses, DR11",0%
same,"Percentage of donors demonstrating IL-10 responses, DR11",0%
same,"Percentage of donors demonstrating TNF-α responses, DR11",25%
same,"Percentage of donors demonstrating IFN-γ responses, DR13",29%
same,"Percentage of donors demonstrating IL-2 responses, DR13",14%
same,"Percentage of donors demonstrating IL-4 responses, DR13",0%
same,"Percentage of donors demonstrating IL-10 responses, DR13",0%
same,"Percentage of donors demonstrating TNF-α responses, DR13",14%
same,"Percentage of donors demonstrating IFN-γ responses, DR15",57%
same,"Percentage of donors demonstrating IL-2 responses, DR15",14%
same,"Percentage of donors demonstrating IL-4 responses, DR15",14%
same,"Percentage of donors demonstrating IL-10 responses, DR15",0%
same,"Percentage of donors demonstrating TNF-α responses, DR15",14%
DQHIEQYLKKIQNSISTEWS [ICS3],"Percentage of donors demonstrating IFN-γ responses, DR1",80%
same,"Percentage of donors demonstrating IL-2 responses, DR1",80%
same,"Percentage of donors demonstrating IL-4 responses, DR1",0%
same,"Percentage of donors demonstrating IL-10 responses, DR1",20%
same,"Percentage of donors demonstrating TNF-α responses, DR1",60%
same,"Percentage of donors demonstrating IFN-γ responses, DR3",33%
same,"Percentage of donors demonstrating IL-2 responses, DR3",0%
same,"Percentage of donors demonstrating IL-4 responses, DR3",17%
same,"Percentage of donors demonstrating IL-10 responses, DR3",17%
same,"Percentage of donors demonstrating TNF-α responses, DR3",0%
same,"Percentage of donors demonstrating IFN-γ responses, DR4",30%
same,"Percentage of donors demonstrating IL-2 responses, DR4",40%
same,"Percentage of donors demonstrating IL-4 responses, DR4",10%
same,"Percentage of donors demonstrating IL-10 responses, DR4",0%
same,"Percentage of donors demonstrating TNF-α responses, DR4",40%
same,"Percentage of donors demonstrating IFN-γ responses, DR7",75%
same,"Percentage of donors demonstrating IL-2 responses, DR7",50%
same,"Percentage of donors demonstrating IL-4 responses, DR7",0%
same,"Percentage of donors demonstrating IL-10 responses, DR7",0%
same,"Percentage of donors demonstrating TNF-α responses, DR7",50%
same,"Percentage of donors demonstrating IFN-γ responses, DR8",0%
same,"Percentage of donors demonstrating IL-2 responses, DR8",0%
same,"Percentage of donors demonstrating IL-4 responses, DR8",0%
same,"Percentage of donors demonstrating IL-10 responses, DR8",0%
same,"Percentage of donors demonstrating TNF-α responses, DR8",25%
same,"Percentage of donors demonstrating IFN-γ responses, DR9",0%
same,"Percentage of donors demonstrating IL-2 responses, DR9",0%
same,"Percentage of donors demonstrating IL-4 responses, DR9",0%
same,"Percentage of donors demonstrating IL-10 responses, DR9",0%
same,"Percentage of donors demonstrating TNF-α responses, DR9",25%
same,"Percentage of donors demonstrating IFN-γ responses, DR11",25%
same,"Percentage of donors demonstrating IL-2 responses, DR11",25%
same,"Percentage of donors demonstrating IL-4 responses, DR11",0%
same,"Percentage of donors demonstrating IL-10 responses, DR11",0%
same,"Percentage of donors demonstrating TNF-α responses, DR11",50%
same,"Percentage of donors demonstrating IFN-γ responses, DR13",0%
same,"Percentage of donors demonstrating IL-2 responses, DR13",0%
same,"Percentage of donors demonstrating IL-4 responses, DR13",0%
same,"Percentage of donors demonstrating IL-10 responses, DR13",0%
same,"Percentage of donors demonstrating TNF-α responses, DR13",14%
same,"Percentage of donors demonstrating IFN-γ responses, DR15",14%
same,"Percentage of donors demonstrating IL-2 responses, DR15",14%
same,"Percentage of donors demonstrating IL-4 responses, DR15",0%
same,"Percentage of donors demonstrating IL-10 responses, DR15",14%
same,"Percentage of donors demonstrating TNF-α responses, DR15",29%
